Reference: ChEMBL document CHEMBL1667786, “Synthesis and biological evaluation of indole-chalcone derivatives as β-amyloid imaging probe” (Bioorg Med Chem Lett, 2011)
Each block holds one compound with its values, some of them ahead of it. The source made the active and inactive calls. The rule behind the calls is not given here.

How the values were obtained:
[1] = Displacement of [125I]IMPY from amyloid beta 1 to 42 after 2 hrs
Mus musculus [2] = species on record: Mus musculus; test: Binding affinity to amyloid beta in APP/PS1 transgenic C57 mouse brain at 1 uM after 10 mins by Thioflavin-S fluorescence assay; format: tissue-based; conditions: tested as the 125I-labelled form
Mus musculus [3] = species on record: Mus musculus; test: Binding affinity to amyloid beta in APP/PS1 transgenic C57 mouse cortex at 1 uM after 10 mins by autoradiography; conditions: tested as the 125I-labelled form
Blood [4] = test: Biodistribution in ddY mouse blood assessed per gram of tissue at 1 uCi, iv after 2 mins; format: ADME, organism-based; conditions: in vivo
Brain [5] = test: Biodistribution in ddY mouse brain assessed per gram of tissue at 1 uCi, iv after 2 mins; format: ADME, organism-based; conditions: in vivo
Heart [6] = test: Biodistribution in ddY mouse heart assessed per gram of tissue at 1 uCi, iv after 2 mins; format: ADME, organism-based; conditions: in vivo
Liver [7] = test: Biodistribution in ddY mouse liver assessed per gram of tissue at 1 uCi, iv after 2 mins; format: ADME, organism-based; conditions: in vivo
Spleen [8] = test: Biodistribution in ddY mouse spleen assessed per gram of tissue at 1 uCi, iv after 2 mins; format: ADME, organism-based; conditions: in vivo
Lung [9] = test: Biodistribution in ddY mouse lung assessed per gram of tissue at 1 uCi, iv after 2 mins; format: ADME, organism-based; conditions: in vivo
Kidney [10] = test: Biodistribution in ddY mouse kidney assessed per gram of tissue at 1 uCi, iv after 2 mins; format: ADME, organism-based; conditions: in vivo
Stomach [11] = test: Biodistribution in ddY mouse stomach assessed per gorgan at 1 uCi, iv after 2 mins; format: ADME, organism-based; conditions: in vivo
Intestine [12] = test: Biodistribution in ddY mouse intestine assessed per gram of tissue at 1 uCi, iv after 2 mins; format: ADME, organism-based; conditions: in vivo
Blood [13] = test: Biodistribution in ddY mouse blood assessed per gram of tissue at 1 uCi, iv after 15 mins; format: ADME, organism-based; conditions: in vivo, 0.25 h
Brain [14] = test: Biodistribution in ddY mouse brain assessed per gram of tissue at 1 uCi, iv after 15 mins; format: ADME, organism-based; conditions: in vivo, 0.25 h
Heart [15] = test: Biodistribution in ddY mouse heart assessed per gram of tissue at 1 uCi, iv after 15 mins; format: ADME, organism-based; conditions: in vivo, 0.25 h
Liver [16] = test: Biodistribution in ddY mouse liver assessed per gram of tissue at 1 uCi, iv after 15 mins; format: ADME, organism-based; conditions: in vivo, 0.25 h
Spleen [17] = test: Biodistribution in ddY mouse spleen assessed per gram of tissue at 1 uCi, iv after 15 mins; format: ADME, organism-based; conditions: in vivo, 0.25 h
Lung [18] = test: Biodistribution in ddY mouse lung assessed per gram of tissue at 1 uCi, iv after 15 mins; format: ADME, organism-based; conditions: in vivo, 0.25 h
Kidney [19] = test: Biodistribution in ddY mouse kidney assessed per gram of tissue at 1 uCi, iv after 15 mins; format: ADME, organism-based; conditions: in vivo, 0.25 h
Stomach [20] = test: Biodistribution in ddY mouse stomach assessed per gorgan at 1 uCi, iv after 15 mins; format: ADME, organism-based; conditions: in vivo, 0.25 h
Intestine [21] = test: Biodistribution in ddY mouse intestine assessed per gram of tissue at 1 uCi, iv after 15 mins; format: ADME, organism-based; conditions: in vivo, 0.25 h
Blood [22] = test: Biodistribution in ddY mouse blood assessed per gram of tissue at 1 uCi, iv after 30 mins; format: ADME, organism-based; conditions: in vivo, 0.5 h
Brain [23] = test: Biodistribution in ddY mouse brain assessed per gram of tissue at 1 uCi, iv after 30 mins; format: ADME, organism-based; conditions: in vivo, 0.5 h
Heart [24] = test: Biodistribution in ddY mouse heart assessed per gram of tissue at 1 uCi, iv after 30 mins; format: ADME, organism-based; conditions: in vivo, 0.5 h
Liver [25] = test: Biodistribution in ddY mouse liver assessed per gram of tissue at 1 uCi, iv after 30 mins; format: ADME, organism-based; conditions: in vivo, 0.5 h
Spleen [26] = test: Biodistribution in ddY mouse spleen assessed per gram of tissue at 1 uCi, iv after 30 mins; format: ADME, organism-based; conditions: in vivo, 0.5 h
Lung [27] = test: Biodistribution in ddY mouse lung assessed per gram of tissue at 1 uCi, iv after 30 mins; format: ADME, organism-based; conditions: in vivo, 0.5 h
Kidney [28] = test: Biodistribution in ddY mouse kidney assessed per gram of tissue at 1 uCi, iv after 30 mins; format: ADME, organism-based; conditions: in vivo, 0.5 h
Stomach [29] = test: Biodistribution in ddY mouse stomach assessed per gorgan at 1 uCi, iv after 30 mins; format: ADME, organism-based; conditions: in vivo, 0.5 h
Intestine [30] = test: Biodistribution in ddY mouse intestine assessed per gram of tissue at 1 uCi, iv after 30 mins; format: ADME, organism-based; conditions: in vivo, 0.5 h
Blood [31] = test: Biodistribution in ddY mouse blood assessed per gram of tissue at 1 uCi, iv after 60 mins; format: ADME, organism-based; conditions: in vivo, 1 h
Brain [32] = test: Biodistribution in ddY mouse brain assessed per gram of tissue at 1 uCi, iv after 60 mins; format: ADME, organism-based; conditions: in vivo, 1 h
Heart [33] = test: Biodistribution in ddY mouse heart assessed per gram of tissue at 1 uCi, iv after 60 mins; format: ADME, organism-based; conditions: in vivo, 1 h
Liver [34] = test: Biodistribution in ddY mouse liver assessed per gram of tissue at 1 uCi, iv after 60 mins; format: ADME, organism-based; conditions: in vivo, 1 h
Spleen [35] = test: Biodistribution in ddY mouse spleen assessed per gram of tissue at 1 uCi, iv after 60 mins; format: ADME, organism-based; conditions: in vivo, 1 h
Lung [36] = test: Biodistribution in ddY mouse lung assessed per gram of tissue at 1 uCi, iv after 60 mins; format: ADME, organism-based; conditions: in vivo, 1 h
Kidney [37] = test: Biodistribution in ddY mouse kidney assessed per gram of tissue at 1 uCi, iv after 60 mins; format: ADME, organism-based; conditions: in vivo, 1 h
Stomach [38] = test: Biodistribution in ddY mouse stomach assessed per gorgan at 1 uCi, iv after 60 mins; format: ADME, organism-based; conditions: in vivo, 1 h
Intestine [39] = test: Biodistribution in ddY mouse intestine assessed per gram of tissue at 1 uCi, iv after 60 mins; format: ADME, organism-based; conditions: in vivo, 1 h
Blood [40] = test: Biodistribution in ddY mouse blood assessed per gram of tissue at 1 uCi, iv after 120 mins; format: ADME, organism-based; conditions: in vivo, 2 h
Brain [41] = test: Biodistribution in ddY mouse brain assessed per gram of tissue at 1 uCi, iv after 120 mins; format: ADME, organism-based; conditions: in vivo, 2 h
Heart [42] = test: Biodistribution in ddY mouse heart assessed per gram of tissue at 1 uCi, iv after 120 mins; format: ADME, organism-based; conditions: in vivo, 2 h
Liver [43] = test: Biodistribution in ddY mouse liver assessed per gram of tissue at 1 uCi, iv after 120 mins; format: ADME, organism-based; conditions: in vivo, 2 h
Spleen [44] = test: Biodistribution in ddY mouse spleen assessed per gram of tissue at 1 uCi, iv after 120 mins; format: ADME, organism-based; conditions: in vivo, 2 h
Lung [45] = test: Biodistribution in ddY mouse lung assessed per gram of tissue at 1 uCi, iv after 120 mins; format: ADME, organism-based; conditions: in vivo, 2 h
Kidney [46] = test: Biodistribution in ddY mouse kidney assessed per gram of tissue at 1 uCi, iv after 120 mins; format: ADME, organism-based; conditions: in vivo, 2 h
Stomach [47] = test: Biodistribution in ddY mouse stomach assessed per gorgan at 1 uCi, iv after 120 mins; format: ADME, organism-based; conditions: in vivo, 2 h
Intestine [48] = test: Biodistribution in ddY mouse intestine assessed per gram of tissue at 1 uCi, iv after 120 mins; format: ADME, organism-based; conditions: in vivo, 2 h

SMILES: O=C(/C=C/c1ccc2[nH]ccc2c1)c1ccc(Br)cc1
Ki [1]: 8.96 nM

SMILES: CNc1ccc(C(=O)/C=C/c2ccc3[nH]ccc3c2)cc1
Ki [1]: 51.1 nM

SMILES: COc1ccc(C(=O)/C=C/c2ccc3[nH]ccc3c2)cc1
Ki [1]: 8.52 nM

SMILES: O=C(/C=C/c1ccc2[nH]ccc2c1)c1ccc(O)cc1
Ki [1]: > 360 nM

SMILES: O=C(/C=C/c1ccc2[nH]ccc2c1)c1ccc(Cl)cc1
Ki [1]: 8.43 nM

SMILES: O=C(/C=C/c1ccc2[nH]ccc2c1)c1ccc(F)cc1
Ki [1]: 35.1 nM

SMILES: O=C(/C=C/c1ccc2[nH]ccc2c1)c1ccc([125I])cc1
Drug uptake (Blood [4]): 8.85 %ID
Drug uptake (Brain [5]): 0.41 %ID
Drug uptake (Heart [6]): 3.27 %ID
Drug uptake (Liver [7]): 2.69 %ID
Drug uptake (Spleen [8]): 3.02 %ID
Drug uptake (Lung [9]): 7.33 %ID
Drug uptake (Kidney [10]): 7.3 %ID
Drug uptake (Stomach [11]): 2.01 %ID
Drug uptake (Intestine [12]): 1.36 %ID
Drug uptake (Blood [13]): 5.7 %ID
Drug uptake (Brain [14]): 0.29 %ID
Drug uptake (Heart [15]): 2.27 %ID
Drug uptake (Liver [16]): 2.21 %ID
Drug uptake (Spleen [17]): 2.96 %ID
Drug uptake (Lung [18]): 4.86 %ID
Drug uptake (Kidney [19]): 4.03 %ID
Drug uptake (Stomach [20]): 1.07 %ID
Drug uptake (Intestine [21]): 2.01 %ID
Drug uptake (Blood [22]): 4.79 %ID
Drug uptake (Brain [23]): 0.2 %ID
Drug uptake (Heart [24]): 1.72 %ID
Drug uptake (Liver [25]): 1.91 %ID
Drug uptake (Spleen [26]): 2.4 %ID
Drug uptake (Lung [27]): 4.2 %ID
Drug uptake (Kidney [28]): 3.26 %ID
Drug uptake (Stomach [29]): 0.85 %ID
Drug uptake (Intestine [30]): 2.32 %ID
Drug uptake (Blood [31]): 4.15 %ID
Drug uptake (Brain [32]): 0.21 %ID
Drug uptake (Heart [33]): 1.61 %ID
Drug uptake (Liver [34]): 1.48 %ID
Drug uptake (Spleen [35]): 2.27 %ID
Drug uptake (Lung [36]): 3.4 %ID
Drug uptake (Kidney [37]): 3.11 %ID
Drug uptake (Stomach [38]): 0.96 %ID
Drug uptake (Intestine [39]): 1.72 %ID
Drug uptake (Blood [40]): 3.72 %ID
Drug uptake (Brain [41]): 0.13 %ID
Drug uptake (Heart [42]): 1.33 %ID
Drug uptake (Liver [43]): 1.43 %ID
Drug uptake (Spleen [44]): 1.89 %ID
Drug uptake (Lung [45]): 3.19 %ID
Drug uptake (Kidney [46]): 2.78 %ID
Drug uptake (Stomach [47]): 1.19 %ID
Drug uptake (Intestine [48]): 2.13 %ID

SMILES: Nc1ccc(C(=O)/C=C/c2ccc3[nH]ccc3c2)cc1
Ki [1]: > 1010 nM

Continued by falling Ki [1], values first:

Ki [1]: 8.22 nM
Activity (Mus musculus [2]): Active
Activity (Mus musculus [3]): Active
SMILES: O=C(/C=C/c1ccc2[nH]ccc2c1)c1ccc(I)cc1

Ki [1]: 5.17 nM
SMILES: CN(C)c1ccc(C(=O)/C=C/c2ccc3[nH]ccc3c2)cc1

Ki [1]: 4.46 nM
SMILES: COc1ccc2cc(C(=O)/C=C/c3ccc4[nH]ccc4c3)ccc2c1

Activity [1]: Dose-dependent effect
Ki [1]: 1.97 nM
SMILES: CN(C)c1ccc(/C=C/C(=O)c2ccc(I)cc2)cc1
